*1 amine or outer side, *2 acyl side, *3 side chain or, on linkers, in order; H or OH if unused. Where a SMILES comes first, the peptide text is derived from it. Bridges are numbered along the chain shown (N, C = ends). [ ]: non-standard residue; d: D form. The star is where a group is joined. Phe(3-OMe,4-CONHMs) = COc1cc(C[C@H](N)C(=O)O)ccc1C(=O)NS(C)(=O)=O; hPhe(3-OMe,4-CONHMe) = CNC(=O)c1ccc(CC[C@H](N)C(=O)O)cc1OC; Phe(4-COOH) = N[C@@H](Cc1ccc(C(=O)O)cc1)C(=O)O; NMePhe(3-Cl) = CN[C@@H](Cc1cccc(Cl)c1)C(=O)O; X7 = O=C(C[C@H](COCCO)N[*:1])[*:2]; NMeF = CN[C@@H](Cc1ccccc1)C(=O)O; NMeD = CN[C@@H](CC(=O)O)C(=O)O; NMeL = CN[C@@H](CC(C)C)C(=O)O; NMeV = CN[C@H](C(=O)O)C(C)C; NMeAbu = CC[C@H](NC)C(=O)O; NMeA = CN[C@@H](C)C(=O)O; Piperidide = C1CCN(*)CC1; CH2CMe2OH = CC(C)(O)C*; NBuGly = CCCCNCC(=O)O; NPrGly = CCCNCC(=O)O; Propyl(3-OH) = OCCC*; N(OH)Me = CN(O)*; Sar = CNCC(=O)O; tBu = CC(C)(C)*
Assay: in vitro
Details: human, Caco-2, Caco-2 (cm/sec)
`CC(C)C[C@@H]1NC(=O)[C@H](Cc2ccccc2)N(C)C(=O)[C@H](C)N(C)C(=O)C[C@@H](C(=O)N2CCCCC2)N(C)C(=O)[C@H](Cc2ccccc2)N(C)C(=O)[C@H](Cc2ccccc2)N(C)C(=O)[C@H](COC(C)(C)C)NC(=O)[C@H](C(C)C)N(C)C(=O)CN(C)C(=O)[C@H]([C@@H](C)O)NC(=O)[C@H](CC(C)C)N(C)C1=O` [pd202] ([NMeA][NMeF]L[NMeL]T[Sar][NMeV]S(tBu)[NMeF][NMeF][NMeD]-Piperidide; lactam N-11) gave a Papp of 2.1 ×10⁻⁶ cm/s. `CCCN1CC(=O)N(C)[C@@H](Cc2ccccc2)C(=O)N(C)[C@@H](CC(C)C)C(=O)N[C@@H](COCC(C)(C)O)C(=O)N(C)[C@@H](CC(C)C)C(=O)N[C@H](C(=O)N2CCCCC2)CC(=O)N(C)CC(=O)N(C)[C@@H](Cc2ccccc2)C(=O)N[C@@H]([C@@H](C)CC)C(=O)N(C)[C@@H](CC(C)C)C(=O)N[C@@H]([C@@H](C)O)C1=O` [AP08] ([Sar][NMeF]I[NMeL]T[NPrGly][NMeF][NMeL]S(CH2CMe2OH)[NMeL]D-Piperidide; lactam N-11) showed a Papp of 0.67 ×10⁻⁶ cm/s. For `CCCCN1CC(=O)N(C)[C@@H](CC(C)C)C(=O)N[C@H](C(=O)N2CCCCC2)CC(=O)N(C)[C@@H](CC(C)C)C(=O)N[C@@H](COCCO)CC(=O)N(C)[C@@H](CC(C)C)C(=O)N(C)[C@@H](Cc2ccccc2)C(=O)N[C@@H](CC(C)C)C(=O)N(C)[C@@H](Cc2ccccc2)C(=O)N(C)[C@@H](CC(C)C)C(=O)N[C@@H]([C@@H](C)O)C1=O` [AP23] ([NMeL][X7][NMeL][NMeF]L[NMeF][NMeL]T[NBuGly][NMeL]D-Piperidide; lactam N-11), the Papp was 0.43 ×10⁻⁶ cm/s. `CCCCN1CC(=O)N(C)[C@@H](CC(C)C)C(=O)N(C)[C@@H](CC(C)C)C(=O)N[C@@H](COC(C)(C)C)C(=O)N(C)[C@@H](CC(C)C)C(=O)N[C@H](C(=O)N2CCCCC2)CC(=O)N(C)CC(=O)N(C)[C@@H](Cc2cccc(Cl)c2)C(=O)N[C@@H](Cc2ccc(C(=O)N(C)O)cc2)C(=O)N(C)[C@@H](CC(C)C)C(=O)N[C@@H]([C@@H](C)O)C1=O` [AP254] ([Sar][NMePhe(3-Cl)][Phe(4-COOH)](N(OH)Me)[NMeL]T[NBuGly][NMeL][NMeL]S(tBu)[NMeL]D-Piperidide; lactam N-11) gave a Papp of 0.15 ×10⁻⁶ cm/s. With `CCCCN1CC(=O)N(C)[C@@H](Cc2ccccc2)C(=O)N(C)[C@@H](CC(C)C)C(=O)N[C@@H](CC(C)C)C(=O)N(C)[C@@H](CC(C)C)C(=O)N[C@H](C(=O)N2CCCCC2)CC(=O)N(C)CC(=O)N(C)[C@@H](CC(C)C)C(=O)N[C@@H](CCc2ccc(C(=O)NC)c(OC)c2)C(=O)N(C)[C@@H](CC)C(=O)N[C@@H]([C@@H](C)O)C1=O` [AP206] ([Sar][NMeL][hPhe(3-OMe,4-CONHMe)][NMeAbu]T[NBuGly][NMeF][NMeL]L[NMeL]D-Piperidide; lactam N-11) the Papp was 0.86 ×10⁻⁶ cm/s. Molecule `CC[C@H](C)[C@@H]1NC(=O)[C@H](CC(C)C)N(C)C(=O)CN(C)C(=O)C[C@@H](C(=O)N2CCCCC2)NC(=O)[C@H](CC(C)C)N(C)C(=O)[C@H](Cc2ccc(C(=O)N(C)O)cc2)NC(=O)[C@H](CC(C)C)N(C)C(=O)[C@H](Cc2cccc(Cl)c2)N(C)C(=O)CN(C)C(=O)[C@H]([C@@H](C)O)NC(=O)[C@H](CC(C)C)N(C)C1=O` [AP255] ([Sar][NMeL]I[NMeL]T[Sar][NMePhe(3-Cl)][NMeL][Phe(4-COOH)](N(OH)Me)[NMeL]D-Piperidide; lactam N-11) has a Papp of 0.05 ×10⁻⁶ cm/s. Molecule `CC(C)C[C@@H]1NC(=O)[C@H](Cc2ccccc2)N(C)C(=O)[C@@H](C(C)C)NC(=O)C[C@@H](C(=O)N2CCCCC2)NC(=O)[C@H](CC(C)C)N(C)C(=O)[C@H](Cc2cccc(Cl)c2)N(C)C(=O)[C@H](COCCCO)NC(=O)[C@H](CC(C)C)N(C)C(=O)CN(C)C(=O)[C@H]([C@@H](C)O)NC(=O)[C@H](CC(C)C)N(C)C1=O` [AP90] ([dV][NMeF]L[NMeL]T[Sar][NMeL]S(Propyl(3-OH))[NMePhe(3-Cl)][NMeL]D-Piperidide; lactam N-11) has a Papp of 3.3 ×10⁻⁶ cm/s. Work on `CC(C)C[C@@H]1NC(=O)[C@H](Cc2ccccc2)N(C)C(=O)[C@H]2CCCN2C(=O)C[C@@H](C(=O)N2CCCCC2)NC(=O)[C@H](Cc2ccccc2)N(C)C(=O)[C@H](Cc2ccccc2)N(C)C(=O)[C@H](COC(C)(C)C)NC(=O)[C@H](CC(C)C)N(C)C(=O)CN(C)C(=O)[C@H]([C@@H](C)O)NC(=O)[C@H](CC(C)C)N(C)C1=O` [pd206] ([dP][NMeF]L[NMeL]T[Sar][NMeL]S(tBu)[NMeF][NMeF]D-Piperidide; lactam N-11) yielded a Papp of 1.8 ×10⁻⁶ cm/s. In the case of `CCCCN1CC(=O)N(C)[C@@H](CC(C)C)C(=O)N[C@@H](Cc2ccc(C(=O)NS(C)(=O)=O)c(OC)c2)C(=O)N(C)[C@@H](CC(C)C)C(=O)N(C)[C@@H](CC(C)C)C(=O)N[C@H](C(=O)N2CCCCC2)CC(=O)N[C@H](CC(C)C)C(=O)N(C)[C@@H](Cc2ccccc2)C(=O)N[C@@H](C(C)C)C(=O)N(C)[C@@H](CC(C)C)C(=O)N[C@@H]([C@@H](C)O)C1=O` [AP136] ([dL][NMeF]V[NMeL]T[NBuGly][NMeL][Phe(3-OMe,4-CONHMs)][NMeL][NMeL]D-Piperidide; lactam N-11), the Papp is reported as 0.47 ×10⁻⁶ cm/s.

From patent US20230096766A1, “AMINO ACID HAVING FUNCTIONAL GROUP CAPABLE OF INTERMOLECULAR HYDROGEN BONDING, PEPTIDE COMPOUND CONTAINING SAME AND METHOD FOR PRODUCTION THEREOF” (Chugai Seiyaku Kabushiki Kaisha, priority 2018, published 2023)
